Patent publication US11447550B2, “Peptides for molecular detection of PD-L1” (THE CURATORS OF THE UNIVERSITY OF MISSOURI, priority 2016, dated 2022)
Ends that are not written are not given here. * marks the point of attachment. Biotin = O=C1N[C@H]2[C@H](CS[C@H]2CCCCC(=O)*)N1

Legend:
PD-L1 [1] = target: T1, PD-L1 (Homo sapiens, UniProt Q9NZQ7); test: Immunohistochemistry using biotinylated peptide on FFPE tissues; type: binding; parameters: Seven PD-L1 expressing NSCLC patient tissues were obtained from the MU OneHealth tissue bank; tissue MU OneHealth tissue bank; U.S. Biomax (TMA) LC1923; host or cells: FFPE placenta, seven NSCLC patient tissues, 192-case lung cancer tissue microarray, four Hodgkin's lymphoma cases; details: for staining of placental trophoblasts: FFPE placenta tissue (positive control), FIG. 8
T1 sequence (Q9NZQ7 19-290): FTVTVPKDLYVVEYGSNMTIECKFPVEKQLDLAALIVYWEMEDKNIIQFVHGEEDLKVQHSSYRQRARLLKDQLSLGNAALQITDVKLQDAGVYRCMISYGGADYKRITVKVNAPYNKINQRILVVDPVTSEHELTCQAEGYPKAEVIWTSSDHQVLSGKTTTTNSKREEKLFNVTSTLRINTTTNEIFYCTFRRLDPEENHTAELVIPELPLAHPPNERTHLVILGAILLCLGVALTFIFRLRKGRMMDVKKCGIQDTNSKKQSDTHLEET
From the text: To detect PD-L1 in FFPE tissues, manual IHC techniques were employed with a biotin-conjugated version of peptide RK-10-Cy5 and compared with Ventana PD-L1 (SP263) Rabbit monoclonal Primary Antibody stained on a Roche Benchmark Ultra autostainer. Seven PD-L1 expressing NSCLC patient tissues were obtained from the MU OneHealth tissue bank and de-identified according to IRB protocols. Paraffin-embedded patient tissue slides were baked overnight, then de-waxed and rehydrated according to standard protocols. Tissue sections were then subjected to antigen retrieval in EDTA at 95° C. for 20 minutes in EDTA […]. The solution is then cooled for an additional 20 minutes on the bench top prior to buffer rinse. Tissues were then incubated with […] for 2 hours in a humid chamber at RT. After 2 hours, slides were washed with buffer and treated with PIERCE™ High Sensitivity Streptavidin-HRP (1:200 dilution) (Sigma) for 30 minutes at RT in a humid chamber. Once this was complete, slides were again washed in buffer then treated with DAB (3,3′-Diaminobenzidine; Sigma) for 10 minutes. Slides were again washed in buffer, then dehydrated using graded alcohol and xylene and counterstained with hematoxylin. Slides were then imaged using bright-field microscopy on a Leica DM5500.
Seven Patient NSCLC tissues were investigated for PD-L1 using either manual IHC with 15 μM RK-10-Biotin peptide, or the Ventana PD-L1 (SP263) rabbit monoclonal primary antibody stained on a Roche Benchmark Ultra. In this study the peptide was conjugated with biotin, which was used to bind a secondary treatment of streptavidin-HRP. Formalin-Fixed, Paraffin Embedded (FFPE) placenta tissue was used as the positive control, since PD-L1 is expressed in placental trophoblasts (Veras, E., Kurman, R. J., Wang, T.-L. & Shih, I.-M. International Journal of Gynecological Pathology Publish Ahead of Print). This study also utilized biotinylated mock peptide RK-11-Biotin as a negative control. This mock peptide was synthesized to have very low affinity to PD-L1. Both the PD-L1 peptide and Ventana clone SP263 stained the trophoblasts heavily in the placental tissue (FIG. 8). […] Blocking of the Ventana antibody was achieved by first treating the placenta tissue with RK-10-Biotin for 30 minutes, washing, and treating on the Roche autostainer according to specifications. […] As a negative control, normal lung, breast, and colorectal tissues were stained using RK-10 and SP263.
Once confidence in PD-L1 staining was established in repeated placenta tissues, staining in seven NSCLC patient tissues (patients ‘A’ through ‘G’) was compared with the Ventana SP263 antibody and RK-10-Biotin (FIG. 9). […]

PD-L1 [2] = target: T1, PD-L1; test: IHC blocking using PD-L1 peptide or Ventana antibody SP263; type: binding; parameters: Seven PD-L1 expressing NSCLC patient tissues were obtained from the MU OneHealth tissue bank; tissue MU OneHealth tissue bank; U.S. Biomax (TMA) LC1923; host or cells: FFPE placenta, seven NSCLC patient tissues, 192-case lung cancer tissue microarray, four Hodgkin's lymphoma cases; details: placenta tissue treated with RK-10-Biotin for 30 minutes, then Ventana SP263 on Roche autostainer, FIG. 8 panel c
Experimental: To test specificity of the PD-L1 peptide, PD-L1 receptors were first blocked on the tissue with RK-10 peptide for 1 hour prior to autostaining the tissue with SP263 antibody using the Roche autostainer with the Ventana PD-L1 kit according to Roche's specifications. Blocking of the RK-10 peptide using the SP263 antibody was also investigated by first treating the tissue with SP263 antibody for 30 minutes prior to treating the tissue with peptide according to the previously mentioned protocol.
Seven Patient NSCLC tissues were investigated for PD-L1 using either manual IHC with 15 μM RK-10-Biotin peptide, or the Ventana PD-L1 (SP263) rabbit monoclonal primary antibody stained on a Roche Benchmark Ultra. In this study the peptide was conjugated with biotin, which was used to bind a secondary treatment of streptavidin-HRP. Formalin-Fixed, Paraffin Embedded (FFPE) placenta tissue was used as the positive control, since PD-L1 is expressed in placental trophoblasts (Veras, E., Kurman, R. J., Wang, T.-L. & Shih, I.-M. International Journal of Gynecological Pathology Publish Ahead of Print). This study also utilized biotinylated mock peptide RK-11-Biotin as a negative control. This mock peptide was synthesized to have very low affinity to PD-L1. Both the PD-L1 peptide and Ventana clone SP263 stained the trophoblasts heavily in the placental tissue (FIG. 8). […]

Substance	staining of normal tissues (PD-L1 [1]; normal lung, breast and colorectal tissues (negative control))	staining of placental trophoblasts (PD-L1 [1])	tumor staining in NSCLC patient tissues (PD-L1 [1]; seven NSCLC patient tissues A-G, 15 μM peptide, FIG. 9)	SP263 staining after pre-blocking with peptide (PD-L1 [2])
GSGSGSTYLCGAISLAPKAQIKESL [RK-10]	negative for PD-L1 expression	–	–	–
Biotin-GSGSGSTYLCGAISLAPKAQIKESL [RK-10-Biotin]	–	heavy membrane staining of the trophoblast cells	heaviest staining was observed localized to the tumor regions of the tissues	drastic reduction of staining
Biotin-GSGSGSFVLNWYRMSPSNQTDKLAA [RK-11-Biotin]	–	light staining at high concentrations	–	–
